Laboratory results from US4914201A, “Indolo[1,2-d][1,4]benzodiazepin-6(7H)-thiones” (Hoechst-Roussel Pharmaceuticals Inc., priority 1989, dated 1990).

System: 2-phenyl-1,4-benzoquinone-induced writhing in mice
Assay: 2-phenyl-1,4-benzoquinone-induced writhing test in mice (analgesia, phenylquinone writhing, PQW)
Assay type: in vivo
From the text: The compounds of Formula I of the present invention are useful as analgesic agents due to their ability to alleviate pain in mammals. […] Exptl. Biol. Med., 95, 729 (1957)].

SMILES	Analgesic PQW, % Inhibition of Writhing at 20 mg/kg., s.c.
Cc1nnc2n1-c1ccccc1-c1cc3ccccc3n1C2 [Example 7, 1-Methyl-4H-indolo[1,2-d][1,2,4]triazolo[4,3-a][1,4]benzodiazepine]	37%
Cc1nnc2n1-c1ccccc1-c1c(Cl)c3ccccc3n1C2 [Example 8, 10-chloro-1-methyl-4H-indolo-[1,2-d][1,2,4]triazolo[4,3-a]-[1,4]benzodiazepine]	51%
Cc1nnc2n1-c1ccc(Cl)cc1-c1cc3ccccc3n1C2 [Example 9, 12-Chloro-1-methyl-4H-indolo[1,2-d][1,2,4]triazolo[4,3-a][1,4]benzodiazepine]	46%
Cc1nnc2n1-c1ccc(Cl)cc1-c1c(Cl)c3ccccc3n1C2 [Example 11, 10,12-Dichloro-1-methyl-4H-indolo[1,2-d][1,2,4]triazolo[4,3-a][1,4]benzodiazepine]	32%
